Assay results: patent publication US20230302159A1, “COMPOUNDS AND COMPOSITIONS FOR TUMOR DETECTION AND SURGICAL GUIDANCE” (Cornell University, priority 2020, published 2023)
Values joined by “and” are separate entries in the source; they are usually repeats but may differ in a detail not shown here. Identical values can stand only once. “Also recorded” adds a separate entry of the source.

What was measured:
OVASAHO cells [1] = assay: Cell viability, cell counting kit-8 (CCK-8); assay type: cell-based; conditions: 2 μM for 1 hr, then 72 hrs in fresh medium
Procedure: Cell viability. The cell viability of CypH-11 and CypH-1 were evaluated using the cell counting kit-8 (CCK-8) from Dojindo (Rockville, MD). OVASAHO cells (5.0×10^3) were seeded on a 96-well plate and cultured for 24 hrs. Then the cells were treated with CypH-11 (2 μM) and CypH-1 (2 μM) for 1 hr. After replacing the medium with fresh cell culture medium, the cells were incubated for another 72 hrs. The cell viability was examined by treating them with CCK-8 solution for 3 hrs and reading the absorbance at 450 nm using a plate reader.

[2] = Absorbance and fluorescence spectra (excitation/emission maxima); assay type: physicochemical
OVASAHO cells [3] = assay: In vitro fluorescence microscopy and intracellular localization; assay type: cell-based; conditions: 2 μM, 1 hr; for Pearson value, overlap with the mitochondria tracker: co-staining with mitochondria tracker; for cellular fluorescence image in the presence of dye-containing medium (no washing): without washing
Procedure: Evaluation of CypH-11 in cancer cells. An ovarian cancer cell line, OVASAHO, was used to evaluate the performance of CypH-11, CypH-1, and Cy7. OVASAHO cells were incubated with the respective probe (2 μM) for 1 hr, and the cellular fluorescence images were captured in the presence of the dye-containing medium (FIG. 13A). […] This distinct difference is because of the pH sensitivity of CypH-11 and CypH-1. Both of them have low fluorescence in the cell culture medium (pH=7.4), but their fluorescence is turned on upon entering the cellular acidic compartments. […] After washing with a fresh culture medium, the cell images were captured again (FIG. 19). […] The intracellular distribution of dyes was investigated by co-staining with mitochondrial, lysosomal and nuclear trackers (FIG. 13B).
In vitro fluorescence microscopy. OVASAHO cells were used to compare the cellular performance and cellular distribution of CypH-11, CypH-1, and Cy7. OVASAHO cells (1.0×10^4) were seeded on a 96-well black plate (Corning, NY) and incubated in the supplemented medium for 24 hrs. Compounds (2 μM) were added and the cells were incubated for 1 hr. Before PBS washing, the cellular fluorescence images were captured with a fluorescence microscope (Cy7 filter, excitation: 690-730 nm and emission: 770-850 nm). After PBS washing (3×), the cellular images were captured again. For the co-localization experiment, OVASAHO cells (5.0×10^3) were incubated on a 96 well plate (ibiTreat, 180 μm coverslip, ibidi) with a clear and flat bottom. After treatment with CypH-11 (2 μM) or CypH-1 (2 μM) for 1 hr, the cells were washed with medium (3×). The cells were stained with Mitoview Green (Biotium, Parkway Fremont, CA) for 15 min or Lysoview 488 (Biotium) for 30 min. After washing with medium (3×), cells were further stained with DAPI (Invitrogen) for 10 min. The fluorescence images were captured using a fluorescence microscope (EVOS) after replacing the medium with a fresh cell culture medium. CypH-11 and CypH-1 images were obtained with a Cy7 filter, DAPI images with a DAPI filter (excitation: 352-402 nm and emission: 417-477 nm), Mitoview Green and Lysoview 488 images with a GFP filter (excitation: 457-487 nm and emission: 502-538 nm).

[4] = system: OVASAHO/RFP-Luc subcutaneous tumors; assay: In vivo fluorescence imaging of subcutaneous tumors by spraying, OVASAHO/RFP-Luc model; design: species or system mice; conditions: for fluorescence on tumor and normal tissue after spray: no washing; for signal to background ratio (tumor-to-muscle): 2 μM
Excerpt: Detection of subcutaneous tumors by spraying. To evaluate the in vivo performance of the fluorogenic probes via the “spray-and-see” technique, an OVASAHO subcutaneous tumor model was used. For a facile signal co-registration, the cells were first engineered to express red fluorescence protein (RFP). Two weeks after subcutaneous inoculating of OVASAHO/RFP-Luc cells into both flanks, the tumors reached around 5 mm in size. The skin on the tumor area was removed, then the CypH-11 or Cy7 solution (2 μM in PBS) was sprayed once onto the exposed area. The whole body fluorescence images were continuously captured at various time points without washing (FIG. 14A). The tumor tissues were conveniently delineated by their intrinsic RFP fluorescence.
Tumor models of subcutaneous implants and peritoneal implants. All animal procedures were carried out in compliance with the approved animal protocols and guidelines of the Institutional Animal Care and Use Committee at Weil Cornell Medical College. Mice (female, SCID Hairless Outbred Mouse) were purchased from Charles River (Wilmington, MA). To establish the subcutaneous implants, a suspension of OVASAHO/RFP-Luc cells (5.0×10^6) or SKOV3/GFP-Luc cells (5.0×10^6) in 100 μL PBS was inoculated into each flank of the female nude mice on both sides. After two weeks, the tumor implants grew to around 5 mm in size and were used for the spray experiment. To establish the peritoneal implants, SKOV3/GFP-Luc cells (5.0×10^6) suspended in […] were injected into the abdominal cavities of the female nude mice. After two weeks, the tumor growth was examined with an in vivo bioluminescence imaging system followed by peritoneal injection of D-luciferin potassium solution (200 μL, 15 mg/mL) for 10 min. Generally, mice bearing multiple disseminated peritoneal implants of 5 mm size in diameter were used for the experiment.
In vivo fluorescence imaging of subcutaneous tumors. Two subcutaneous tumor models (OVASAHO/RFP-Luc and SKOV3/GFP-Luc) were used to compare the imaging capability of CypH-11, CypH-1, and Cy7. Mice bearing the subcutaneous implants were anesthetized in an induction chamber using 2% isoflurane, and anesthesia was maintained with 1.5-2.0% isoflurane via a nose cone. Sterile surgical tools were used to remove skin around the tumor. The mice images were captured using an IVIS SpectrumCT System from PerkinElmer (Waltham, MA). OVASAHO/RFP-Luc and SKOV3/GFP-Luc tumors were captured under an RFP channel (Excitation: 520-550 nm and Emission: 570-590 nm) and a GFP channel (Excitation: 450-480 nm and Emission: 510 530 nm), respectively. A Cy7 channel (Excitation: 730-760 nm and Emission: 790-810 nm) was applied to evaluate the fluorescence generated by CypH-11, CypH-1, and Cy7. After skin removal, the tumor area and the background fluorescence under the Cy7 channel were measured first. Solutions of CypH-11, CypH-1, and Cy7 (2 μM each) were sprayed on the surgical area, and the fluorescence of the Cy7 channel was measured continuously at each time point (1, 3, 5, 7, 10, and 15 min). Ten, five, and three OVASAHO tumors were used to evaluate CypH-11, CypH-1, and Cy7, respectively. Six SKOV3 tumors were used to evaluate CypH-11. To evaluate the tumor-to-normal tissue ratio, the whole tumor regions and the adjacent open-skin areas were drawn, and their fluorescence intensity was acquired by the IVIS software. Tumor-to-normal tissue ratio value was calculated as the average fluorescence intensity of the tumor divided by that of the normal area. Also, tumor-bearing mice were euthanized by carbon dioxide inhalation or a high dose of isoflurane (5%). The subcutaneous tumors and the adjacent muscles were then extracted, and CypH-11 (2 μM) was sprayed onto them. Images were subsequently captured under GFP/RFP/Cy7 channels.

[5] = conditions not stated, previously published lead probe

Question: With `CC(C)N(C)c1ccc(OC2=C(/C=C/C3=[N+](C(C)C)c4ccccc4C3(C)C)CCC/C2=C\C=C2\N(C(C)C)c3ccccc3C2(C)C)cc1.[I-]` [CypH-11] as the compound, how does the cell viability (OVASAHO cells [1]) read?
Answer: Its cell viability is 91.0±4.6%.

Question: And the “Emmax / emission maximum” value ([2]; 2 μM, pH 5.0 phosphate buffer)?
Answer: Its value is 785 nm.

Question: And the “Exmax / absorbance maximum” value ([2]; 2 μM, pH 5.0 phosphate buffer)?
Answer: Its value is 766 nm and 765 nm.

Question: What about the “cellular fluorescence after washing” value (OVASAHO cells [3]) of the same compound?
Answer: Its value is “high fluorescence”.

Question: What about the “Pearson value, overlap with the mitochondria tracker” value (OVASAHO cells [3]) of the same compound?
Answer: Its value is 0.70.

Question: And the “cellular fluorescence image in the presence of dye-containing medium (no washing)” value (OVASAHO cells [3])?
Answer: The value was “Strong intracellular fluorescence and low medium fluorescence”.

Question: What about the “time to fluorescence plateau” value ([4]; 2 μM in PBS, sprayed once) of the same compound?
Answer: The value was at most 10 min.

Question: What about the “fluorescence on tumor and normal tissue after spray” value ([4]; 2 μM sprayed) of the same compound?
Answer: Its value is “high fluorescence only on tumors but not on normal tissue”.

Question: And the “signal to background ratio (tumor-to-muscle)” value (“signal to background ratio” below) ([4]; 1 min after spray)?
Answer: Its value is 1.3.

Question: What about the “signal to background ratio” value ([4]; 5 min after spray) of the same compound?
Answer: Its value is 1.4.

Question: What about the “signal to background ratio” value ([4]; 10 min after spray) of the same compound?
Answer: Its value is 1.5.

Question: With `CN(C)c1ccc(OC2=C(/C=C/C3=[N+](C)c4ccccc4C3(C)C)CCC/C2=C\C=C2\N(C)c3ccccc3C2(C)C)cc1.[Cl-]` [CypH-1, reference compound] as the compound, how does the cell viability (OVASAHO cells [1]) read?
Answer: Its cell viability is 95.5±6.9%.

Question: And the emission maximum [2, 5]?
Answer: The emission maximum was 777 nm.

Question: What about the excitation maximum [2, 5] of the same compound?
Answer: Its excitation maximum is 760 nm.

Question: What about the “cellular fluorescence after washing” value (OVASAHO cells [3]) of the same compound?
Answer: Its value is “high fluorescence”.

Question: And the “Pearson value, overlap with the mitochondria tracker” value (OVASAHO cells [3])?
Answer: The value was 0.90.

Question: What about the “cellular fluorescence image in the presence of dye-containing medium (no washing)” value (OVASAHO cells [3]) of the same compound?
Answer: The value was “Strong intracellular fluorescence and low medium fluorescence”.

Question: And the “tumor to muscle ratio over the time course” value ([4]; 2 μM sprayed, all time points)?
Answer: Its value is “around 1.0”.

Question: What about the “fluorescence on tumor and normal tissue after spray” value ([4]; 2 μM sprayed) of the same compound?
Answer: Its value is “failed to detect the ovarian tumors by spraying; also recorded: very poor fluorescence enhancement in both the tumor and neighboring normal tissues”.
